Data on 31 compounds can be found in US20250223301A1, “KINASE INHIBITORS, PREPARATION METHODS AND USES THEREOF” (InventisBio Co., Ltd., priority 2022, published 2025).

Assay [1] addresses DGKz (Homo sapiens (Human), UniProt Q13574). The assay is described as follows: DGK ADP-Glo kinase assay (DGKz). The settings on record: 5 nM DGKz, 15 uM ATP. In kind it is biochemical. The method, then: Luminescence was recorded using an Tecan SPARK microplate reader.
Background: ADP-Glo turns the ADP formed in a reaction into a luminescent signal.

In assay [2] the target is DGKa (Homo sapiens (Human), UniProt P23743). The assay is described as follows: biochemical.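 Also: biochemical DGK kinase assay, ADP-Glo luminescence from ADP made by phosphorylating 1,2-dioleoyl-sn-glycerol, 20 min compound preincubation then 40 min reaction at 25 °C, 1% DMSO control.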
Sequence of DGKa (P23743 whole entry): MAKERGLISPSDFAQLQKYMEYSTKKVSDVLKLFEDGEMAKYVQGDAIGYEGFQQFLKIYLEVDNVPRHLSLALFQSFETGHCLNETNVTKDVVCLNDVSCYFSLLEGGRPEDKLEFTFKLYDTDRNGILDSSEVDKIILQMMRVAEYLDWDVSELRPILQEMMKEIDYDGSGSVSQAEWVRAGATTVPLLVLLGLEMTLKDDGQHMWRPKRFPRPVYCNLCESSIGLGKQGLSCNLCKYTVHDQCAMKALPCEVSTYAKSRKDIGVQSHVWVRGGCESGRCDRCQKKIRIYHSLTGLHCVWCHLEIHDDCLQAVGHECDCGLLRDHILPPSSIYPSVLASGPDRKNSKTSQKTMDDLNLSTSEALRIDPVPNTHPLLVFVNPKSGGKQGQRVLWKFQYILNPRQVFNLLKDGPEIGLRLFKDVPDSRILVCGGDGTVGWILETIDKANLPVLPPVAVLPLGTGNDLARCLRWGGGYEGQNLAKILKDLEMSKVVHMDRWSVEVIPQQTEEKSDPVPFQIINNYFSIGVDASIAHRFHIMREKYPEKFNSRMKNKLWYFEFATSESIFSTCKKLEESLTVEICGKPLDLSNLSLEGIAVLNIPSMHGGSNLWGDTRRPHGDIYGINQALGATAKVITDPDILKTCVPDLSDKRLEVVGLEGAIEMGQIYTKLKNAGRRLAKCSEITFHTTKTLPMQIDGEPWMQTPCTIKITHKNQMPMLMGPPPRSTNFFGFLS
Experimental: The DGKa and DGKz kinase assays were performed using Promega ADP-Glo kit (Promega, Cat #V9102). One microliter test compound was added to a 384-well plate. Reactions were performed in a 5 uL volume by adding 2 uL mixture of DGK enzyme and ATP in assay buffer (50 mM MOPS pH 7.5, 100 mM NaCl, 10 mM MgCl2, 1 mM CaCl2, 0.0025% BSA, and 1 mM DTT). […] The enzyme solution was incubated with test compound at 25 ? for 20 min. […] The reaction was initiated by the addition of 2 uL of substrate solution (7 uM 1.2-dioleoyl-sn-glycerol, 5 mM octyl-b-D-glucopyranoside) in the 5 uL assay volume. The resulting mixture was incubated at 25° C. for 40 minutes. Next, 5 uL of ADP-Glo-reagent was added to the plate and incubated for 40 minutes. Then 10 uL of kinase detection reagent was added and incubated for 30 minutes. Luminescence was recorded using an Tecan SPARK microplate reader. 1% DMSO vehicle was used as control and no enzyme well was used as blank well.
Assay [3] deals with Jurkat cells. The assay is described as follows: Jurkat IL-2 assay. In kind it is cell-based. The settings on record: Homo sapiens, anti-CD3/CD28 stimulation overnight, IL-2 level. Put shortly: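 Cells in RPMI-1640 with 10% FBS received compound solution (5 uM to 2.3 nM, 8 points, 3-fold dilution) for 60 minutes at 37° C. They were then stimulated overnight at 37° C. with anti-CD3/CD28 antibody. IL-2 in the supernatant was quantified by immunoassay kit and plotted against log compound concentration.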

Assay [4] relates to PBMC. The assay is described as follows: Human PBMC IL-2 assay. In kind it is cell-based. The settings on record: anti-CD3/CD28 stimulation overnight, IL-2 level. The essentials:
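Healthy-donor frozen PBMC were thawed, rested 4 h at 37 °C and plated at ~200,000 cells/well. Cells were preincubated 60 min at 37 °C with compound solution (10 uM to 0.6 nM, 8 points, 4-fold, as added), then stimulated overnight with anti-CD3/CD28. Supernatant IL-2 was quantified by immunoassay kit and plotted against log compound concentration.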

Each structure is given as a SMILES string.

Sequence of DGKz (Q13574 whole entry): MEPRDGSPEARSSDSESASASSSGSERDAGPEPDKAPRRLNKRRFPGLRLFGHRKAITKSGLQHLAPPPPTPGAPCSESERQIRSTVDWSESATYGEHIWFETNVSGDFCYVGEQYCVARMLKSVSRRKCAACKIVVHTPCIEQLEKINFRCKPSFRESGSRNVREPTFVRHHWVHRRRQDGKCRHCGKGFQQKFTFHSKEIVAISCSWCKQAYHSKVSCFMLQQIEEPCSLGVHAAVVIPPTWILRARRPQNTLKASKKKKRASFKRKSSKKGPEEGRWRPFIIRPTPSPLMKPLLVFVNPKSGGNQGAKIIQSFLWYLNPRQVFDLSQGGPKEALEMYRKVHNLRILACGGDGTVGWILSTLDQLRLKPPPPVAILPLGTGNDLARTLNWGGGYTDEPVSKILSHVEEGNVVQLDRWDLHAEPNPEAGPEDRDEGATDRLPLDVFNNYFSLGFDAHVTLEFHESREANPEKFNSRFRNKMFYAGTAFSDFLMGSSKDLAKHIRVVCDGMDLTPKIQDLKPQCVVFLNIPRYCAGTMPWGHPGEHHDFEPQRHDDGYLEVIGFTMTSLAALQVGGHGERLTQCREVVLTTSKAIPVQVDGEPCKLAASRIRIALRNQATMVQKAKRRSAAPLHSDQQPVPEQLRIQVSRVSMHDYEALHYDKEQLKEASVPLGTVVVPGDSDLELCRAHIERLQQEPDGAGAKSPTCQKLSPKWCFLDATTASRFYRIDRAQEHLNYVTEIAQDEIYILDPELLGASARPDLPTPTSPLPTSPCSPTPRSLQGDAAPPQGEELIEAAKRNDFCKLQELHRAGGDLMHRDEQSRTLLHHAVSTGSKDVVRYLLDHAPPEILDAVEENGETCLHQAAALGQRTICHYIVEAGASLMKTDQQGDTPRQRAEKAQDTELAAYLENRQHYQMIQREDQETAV

Regarding `CC[C@H]1C[C@]2(CCN1c1nc(=O)n(C)c3ccc(C#N)nc13)CC(c1ccc(OC(F)(F)F)cc1)=NO2` (single isomer, unassigned) [Compound 74], the IC50 (as a rule, the concentration that inhibits the measured activity by half) in assay [1] was 1570 nM; in assay [2], 10 nM.

Consider `CC[C@@H]1C[C@@]2(CCN1c1nc(=O)n(C)c3ccc(C#N)nc13)CC(c1ccc(OC(F)(F)F)cc1)=NO2` (single isomer, unassigned) [Compound 75], for which the concentration for half-maximal inhibition (IC50) is 660 nM in assay [1] and 253 nM in assay [2].

For the compound `CC[C@H]1C[C@@H](c2nc3cc(C)ccc3o2)CCN1c1nc(=O)n(C)c2cc(O[C@@H]3CCOC3)c(Cl)cc12` (single isomer, unassigned) [Compound 94], the IC50 in assay [1] was 1300 nM; in assay [2], 140 nM.

Take `CC[C@H]1C[C@H](c2nc3cc(C)ccc3o2)CCN1c1nc(=O)n(C)c2cc(OC3CCOC3)c(Cl)cc12` (single isomer, unassigned) [Compound 97]: the values for the IC50 in assay [1] and in assay [2] were 6 nM and 5 nM, respectively.

As to `CC[C@H]1CN([C@@H](CC)c2ccc(OC(F)(F)F)cc2)[C@H](CC)CN1c1nc2nncn2c2ccc(C#N)nc12` (single isomer, unassigned) [Compound 100], the IC50 in assay [1] amounted to 30 nM; in assay [2], 1 nM.

Consider `CC[C@H]1CN([C@@H](C)c2ccc(SC(F)(F)F)cc2)[C@H](CC)CN1c1nc2nncn2c2ccc(C#N)nc12` (stereo in doubt) [Compound 51], for which the half-inhibitory concentration (IC50) in assay [1] turned out to be 50 nM; in assay [2], 58 nM.

Turning to `CC[C@H]1CN([C@H](C)c2ccc(SC(F)(F)F)cc2)[C@H](CC)CN1c1nc2nncn2c2ccc(C#N)nc12` (stereo in doubt) [Compound 52], the half-inhibitory concentration (IC50) in assay [1] stood at 499 nM; in assay [2] it was 5 nM.

Consider `CC[C@H]1CN([C@H](CC)c2cccc(S(F)(F)(F)(F)F)c2)[C@H](CC)CN1c1nc(=O)n(C)c2ccc(C#N)nc12` (stereo in doubt) [Compound 56], for which the IC50 in assay [1] was 131 nM; in assay [2], 415 nM.

As to `CC[C@@H]1CN(c2nc(=O)n(C)c3ccc(C#N)nc23)[C@@H](C)CN1[C@@H](CC)c1ccc(S(F)(F)(F)(F)F)cc1` (stereo in doubt) [Compound 60], the figures for the concentration for half-maximal inhibition (IC50) in assay [1] and in assay [2] were 28 nM and 83 nM, respectively.

For the compound `CC[C@@H]1CN(c2nc(=O)n(C)c3ccc(C#N)nc23)[C@@H](C)CN1[C@H](CC)c1ccc(S(F)(F)(F)(F)F)cc1` (stereo in doubt) [Compound 61], the 50% inhibitory concentration (IC50) in assay [1] turned out to be 180 nM; in assay [2], 128 nM.

For `CC[C@H]1CN([C@@H](C)c2ccc(S(F)(F)(F)(F)F)cc2)[C@H](CC)CN1c1nc(=O)n(C)c2ccc(C#N)nc12` (stereo in doubt) [Compound 62], the figures for the IC50 in assay [1] and in assay [2] were 132 nM and 35 nM, respectively.

Regarding `CC[C@H]1CN([C@H](C)c2ccc(S(F)(F)(F)(F)F)cc2)[C@H](CC)CN1c1nc(=O)n(C)c2ccc(C#N)nc12` (stereo in doubt) [Compound 63], the half-maximal inhibitory concentration (IC50) in assay [1] was 639 nM; in assay [2], 16 nM.

As to `CC[C@@H]1CN(c2nc3nncn3c3ccc(C#N)nc23)[C@@H](C)CN1[C@@H](CC)c1ccc(SC(F)(F)F)cc1` (stereo in doubt) [Compound 66], the concentration for half-maximal inhibition (IC50) in assay [1] came out at 53 nM; in assay [2], 4 nM.

With `CC[C@H]1CN([C@@H](CC)c2ccc(SC(F)(F)F)cc2)[C@H](CC)CN1c1nc2nncn2c2ccc(C#N)nc12` (stereo in doubt) [Compound 68], the IC50 amounted to 103 nM in assay [1] and 5 nM in assay [2].

Regarding `CC[C@H]1CN([C@H](CC)c2ccc(SC(F)(F)F)cc2)[C@H](CC)CN1c1nc2nncn2c2ccc(C#N)nc12` (stereo in doubt) [Compound 69], the half-inhibitory concentration (IC50) was determined as 346 nM in assay [1] and 10 nM in assay [2].

Consider `CC[C@H]1CN([C@H](c2ccc(SC(F)(F)F)cc2)c2nc(C3CC3)no2)[C@H](CC)CN1c1nc(=O)n(C)c2ccc(C#N)nc12` (stereo in doubt) [Compound 70], for which the half-maximal inhibitory concentration (IC50) in assay [1] was 53 nM; in assay [2] it was 3 nM.

With `CC[C@@H]1CN(c2nc3nncn3c3ccc(C#N)nc23)[C@@H](C)CN1[C@H](CC)c1ccc(SC(F)(F)F)cc1` (stereo in doubt) [Compound 71], the values for the IC50 in assay [1] and in assay [2] were 236 nM and 21 nM, respectively.

In the case of `CC[C@H]1CN([C@H](CC)c2ccc(S(F)(F)(F)(F)F)cc2)[C@H](CC)CN1c1nc(=O)n2c3c(cc(C#N)nc13)OCC2` (stereo in doubt) [Compound 79], the IC50 in assay [1] came out at 333 nM; in assay [2], 111 nM.

In the case of `CC[C@@H]1CN(c2nc3nncn3c3ccc(C#N)nc23)[C@@H](C)CN1[C@@H](CC)c1ccc(S(F)(F)(F)(F)F)cc1` (stereo in doubt) [Compound 80], the half-maximal inhibitory concentration (IC50) in assay [1] worked out at 27 nM; in assay [2], 12 nM.

For `CC[C@@H]1CN(c2nc3nncn3c3ccc(C#N)nc23)[C@@H](C)CN1[C@@H](CC)c1ccc(C(F)(F)F)cc1` (stereo in doubt) [Compound 81], the concentration for half-maximal inhibition (IC50) stood at 16 nM in assay [1] and 6 nM in assay [2].

Take `CC[C@@H]1CN2c3c(c(=O)[nH]c4ccc(C#N)nc34)OC[C@@H]2CN1[C@@H](CC)c1ccc(C(F)(F)F)cc1` [Compound 252]: the values for the EC50 in assay [3] and in assay [4] were 122 nM and 106 nM, respectively.

Turning to `CC[C@@H]1CN2c3c(c(=O)n(C)c4ccc(C#N)nc34)OC[C@@H]2CN1Cc1ccc(C(F)(F)F)cc1` [Compound 265], the concentration giving a half-maximal response (EC50) (commonly the concentration giving half of the maximal effect) is 165 nM in assay [3] and 152 nM in assay [4].

As for `CC[C@@H]1CN2c3c(c(=O)n(C)c4ccc(C#N)nc34)OC[C@@H]2CN1Cc1ccc(Cl)c(Cl)c1` [Compound 266], the EC50 was 163 nM in assay [3] and 111 nM in assay [4].

On to `CC[C@@H]1CN2c3c(c(=O)n(C)c4ccc(C#N)nc34)OC[C@@H]2CN1[C@@H](c1ccc(C(F)(F)F)cc1)C(C)C` [Compound 272], for which the figures for the EC50 in assay [3] and in assay [4] were 256 nM and 325 nM, respectively.

For `CC[C@@H]1CN2c3c(c(=O)n(C)c4ccc(C#N)nc34)OC[C@@H]2CN1[C@@H](COC)c1ccc(C(F)(F)F)cc1` [Compound 283], the figures for the concentration for a half-maximal effect (EC50) in assay [3] and in assay [4] were 40 nM and 36 nM, respectively.

In the case of `CC[C@@H]1CN2c3c(c(=O)n(C)c4ccc(C#N)nc34)OC[C@@H]2CN1[C@@H](CC)c1ccc(C(C)(F)F)cc1` [Compound 289], the EC50 in assay [3] came out at 16 nM; in assay [4], 7 nM.

With `Cn1c(=O)c2c(c3nc(C#N)ccc31)N1CC[C@@H](Oc3ccc(C(F)(F)F)cc3)C[C@H]1CO2` [Compound 325], the EC50 in assay [3] worked out at 688 nM; in assay [4] it was 561 nM.

`CC[C@@H]1CN2c3c(c(=O)n(C)c4ccc(C#N)nc34)OC[C@@H]2CN1[C@H](CC)c1ncc(C(F)(F)F)cn1` [Compound 330]: the values for the EC50 in assay [3] and in assay [4] were 267 nM and 115 nM, respectively.

Regarding `CC[C@@H]1CN2c3c(c(=O)n(C)c4ccc(C#N)nc34)OC[C@@H]2CN1[C@@H](CC)c1ncc(C(F)(F)F)cn1` [Compound 331], the concentration giving a half-maximal response (EC50) in assay [3] amounted to 14 nM; in assay [4] it was 16 nM.

In the case of `CC[C@@H]1CN2c3c(c(=O)n(C)c4ccc(C#N)nc34)OC[C@@H]2CN1[C@@H](c1ccc(C(F)(F)F)cc1)C1CC1` [Compound 346], the half-maximal effective concentration (EC50) in assay [3] came out at 91 nM; in assay [4], 138 nM.

Turning to `CC[C@@H]1CN2c3c(c(=O)n(C)c4ccc(C#N)nc34)OC[C@@H]2CN1[C@H](c1ccc(C(F)(F)F)cc1)C1CC1` [Compound 347], the EC50 in assay [3] amounted to 9 nM; in assay [4], 13 nM.
